Measured values: PMC10041525, “New Dual Inhibitors of Bacterial Topoisomerases with Broad-Spectrum Antibacterial Activity and In Vivo Efficacy against Vancomycin-Intermediate Staphylococcus aureus” (Journal of Medicinal Chemistry, 2023)

Test system: 100 A. baumannii strains (50 MDR, 50 non-MDR)
Assay: MIC broth microdilution at IHMA Europe, panel of 100 strains
Format: cell-based
Settings: Acinetobacter baumannii

SMILES: C[C@H]1COc2c(N3CCN(C)CC3)c(F)cc3c(=O)c(C(=O)O)cn1c23.C[C@H]1COc2c(N3CCN(C)CC3)c(F)cc3c(=O)c(C(=O)O)cn1c23.O [Levofloxacin, levofloxacin]
- MIC (A. baumannii IHMA 1769393, Lithuania 2018, Non-MDR): ≤ 0.25 µg/mL
- MIC (A. baumannii IHMA 1769782, Israel 2018, MDR): 4 µg/mL
- MIC (A. baumannii IHMA 1769910, Israel 2018, Non-MDR): ≤ 0.25 µg/mL
- MIC (A. baumannii IHMA 1790317, Czech Republic 2018, Non-MDR): ≤ 0.25 µg/mL
- MIC (A. baumannii IHMA 1790916, Romania 2018, Non-MDR): ≤ 0.25 µg/mL
- MIC (A. baumannii IHMA 1791877, Israel 2018, MDR): 4 µg/mL
- MIC (A. baumannii IHMA 1792961, Jordan 2018, MDR): 8 µg/mL
- MIC (A. baumannii IHMA 1795669, Tunisia 2018, Non-MDR): ≤ 0.25 µg/mL
- MIC (A. baumannii IHMA 1814276, Lebanon 2018, MDR): 16 µg/mL
- MIC (A. baumannii IHMA 1815198, Kuwait 2018, MDR): 16 µg/mL
- MIC (A. baumannii IHMA 1815856, Israel 2018, MDR): 8 µg/mL
- MIC (A. baumannii IHMA 1821468, South Africa 2018, Non-MDR): ≤ 0.25 µg/mL
- MIC (A. baumannii IHMA 1829500, Georgia 2018, Non-MDR): ≤ 0.25 µg/mL
- MIC (A. baumannii IHMA 1830924, United Kingdom 2018, Non-MDR): ≤ 0.25 µg/mL
- MIC (A. baumannii IHMA 1849819, Kuwait 2018, MDR): 16 µg/mL
- MIC (A. baumannii IHMA 1849829, Kuwait 2018, Non-MDR): ≤ 0.25 µg/mL
- MIC (A. baumannii IHMA 1857118, Slovenia 2018, Non-MDR): ≤ 0.25 µg/mL
- MIC (A. baumannii IHMA 1863631, France 2018, Non-MDR): ≤ 0.25 µg/mL
- MIC (A. baumannii IHMA 1870054, United States 2018, Non-MDR): ≤ 0.25 µg/mL
- MIC (A. baumannii IHMA 1884428, Italy 2018, Non-MDR): ≤ 0.25 µg/mL
- MIC (A. baumannii IHMA 1884990, Germany 2018, Non-MDR): ≤ 0.25 µg/mL
- MIC (A. baumannii IHMA 1900538, Turkey 2018, Non-MDR): ≤ 0.25 µg/mL
- MIC (A. baumannii IHMA 1913773, Kenya 2018, Non-MDR): ≤ 0.25 µg/mL
- MIC (A. baumannii IHMA 1926285, Qatar 2018, Non-MDR): ≤ 0.25 µg/mL
- MIC (A. baumannii IHMA 1926288, Qatar 2018, MDR): > 16 µg/mL
- MIC (A. baumannii IHMA 1957343, Portugal 2019, Non-MDR): ≤ 0.25 µg/mL
- MIC (A. baumannii IHMA 1963732, Turkey 2019, MDR): 16 µg/mL
- MIC (A. baumannii IHMA 1967860, Spain 2019, Non-MDR): ≤ 0.25 µg/mL
- MIC (A. baumannii IHMA 1971673, Latvia 2019, MDR): 16 µg/mL
- MIC (A. baumannii IHMA 1975075, Israel 2019, Non-MDR): ≤ 0.25 µg/mL
- MIC (A. baumannii IHMA 1977077, Kuwait 2019, Non-MDR): ≤ 0.25 µg/mL
- MIC (A. baumannii IHMA 1983151, Greece 2019, MDR): 8 µg/mL
- MIC (A. baumannii IHMA 1984665, Lithuania 2019, MDR): 16 µg/mL
- MIC (A. baumannii IHMA 1986678, Turkey 2019, Non-MDR): ≤ 0.25 µg/mL
- MIC (A. baumannii IHMA 1986738, Turkey 2019, MDR): 16 µg/mL
- MIC (A. baumannii IHMA 1987162, Croatia 2019, MDR): 8 µg/mL
- MIC (A. baumannii IHMA 1993615, Turkey 2019, MDR): 8 µg/mL
- MIC (A. baumannii IHMA 1994284, Italy 2019, MDR): > 16 µg/mL
- MIC (A. baumannii IHMA 1995161, Czech Republic 2019, Non-MDR): ≤ 0.25 µg/mL
- MIC (A. baumannii IHMA 1997936, Morocco 2019, Non-MDR): ≤ 0.25 µg/mL
- MIC (A. baumannii IHMA 1999178, Belgium 2019, Non-MDR): ≤ 0.25 µg/mL
- MIC (A. baumannii IHMA 2003279, Turkey 2019, MDR): 8 µg/mL
- MIC (A. baumannii IHMA 2014367, Jordan 2019, Non-MDR): ≤ 0.25 µg/mL
- MIC (A. baumannii IHMA 2014931, South Africa 2019, Non-MDR): ≤ 0.25 µg/mL
- MIC (A. baumannii IHMA 2019315, Romania 2019, Non-MDR): ≤ 0.25 µg/mL
- MIC (A. baumannii IHMA 2020360, Croatia 2019, MDR): 16 µg/mL
- MIC (A. baumannii IHMA 2031511, Greece 2019, Non-MDR): ≤ 0.25 µg/mL
- MIC (A. baumannii IHMA 2031524, Greece 2019, MDR): 4 µg/mL
- MIC (A. baumannii IHMA 2034657, Tunisia 2019, Non-MDR): ≤ 0.25 µg/mL
- MIC (A. baumannii IHMA 2035089, Serbia 2019, MDR): 16 µg/mL
- MIC (A. baumannii IHMA 2035134, Serbia 2019, Non-MDR): ≤ 0.25 µg/mL
- MIC (A. baumannii IHMA 2038976, Hungary 2019, MDR): 8 µg/mL
- MIC (A. baumannii IHMA 2051503, Serbia 2019, MDR): 16 µg/mL
- MIC (A. baumannii IHMA 2058329, Slovenia 2019, Non-MDR): ≤ 0.25 µg/mL
- MIC (A. baumannii IHMA 2065587, France 2019, Non-MDR): ≤ 0.25 µg/mL
- MIC (A. baumannii IHMA 2099294, United Kingdom 2019, Non-MDR): ≤ 0.25 µg/mL
- MIC (A. baumannii IHMA 2129256, Qatar 2019, Non-MDR): ≤ 0.25 µg/mL
- MIC (A. baumannii IHMA 2154584, Israel 2020, MDR): 8 µg/mL
- MIC (A. baumannii IHMA 2155340, Kenya 2020, MDR): 16 µg/mL
- MIC (A. baumannii IHMA 2156634, Turkey 2020, MDR): 16 µg/mL
- MIC (A. baumannii IHMA 2156709, Turkey 2020, MDR): 16 µg/mL
- MIC (A. baumannii IHMA 2157614, Australia 2020, Non-MDR): ≤ 0.25 µg/mL
- MIC (A. baumannii IHMA 2177232, Lithuania 2020, MDR): 16 µg/mL
- MIC (A. baumannii IHMA 2177489, Lithuania 2020, MDR): 16 µg/mL
- MIC (A. baumannii IHMA 2178574, Ukraine 2020, Non-MDR): ≤ 0.25 µg/mL
- MIC (A. baumannii IHMA 2180134, Malaysia 2020, Non-MDR): 0.5 µg/mL
